Reference: patent US20100152297A1, “COMPOSITION FOR REGULATING CELLULAR SENESCENCE COMPRISING N-[2-(CYCLOHEXY-LOXYL)-4-NITROPHENYL]-METHANESULFONAMIDE” (priority 2007, published 2010)
“Also recorded” adds a separate entry of the source.

Assays:
[1] = system: human fibroblasts; test: Senescence-associated beta-galactosidase (SA-β-gal) staining; format: cell-based; conditions: celecoxib 1 μM, nimesulide 20 μM, aspirin 1 mM, ibuprofen 20 μM, flurbiprofen 5 μM
Description: Herein, the senescence-associated β-galactosidase (SA-β-gal) staining was performed in the following manner according to the method of Dimri et al. (1995) (17). […] The cultured cells were seeded on a 35 mm dish, and then stabilized. Then, the cells were washed twice with PBS and fixed with 3% formaldehyde at room temperature for 5 minutes. […] During the progression of the reaction, light was blocked. […] The experiment was independently repeated twice, and the mean value and standard deviation of the measurements were calculated.

[2] = system: human fibroblasts; test: Regulation of growth rate: number of population doublings (PDs); format: cell-based; conditions: for reduction of the maximum number of population doublings compared to DMSO: celecoxib 1 μM, nimesulide 20 μM, aspirin 1 mM, ibuprofen 20 μM, flurbiprofen 5 μM; for effect on cellular senescence: conclusion from population doublings and SA-β-gal staining
Description: According to the literature of Boyce and Ham (1983), human fibroblasts were isolated from foreskin, and then cultured in a DMEM medium, containing 10% fetal bovine serum (Life Technology Inc., Grand Island, N.Y.), penicillin (100 units/ml) and streptomycin (100 units/ml)). […] Then, the number of the cells was calculated by trypan blue staining, and the number of population doublings (PDs) of the cells was calculated according to the following equation 1: Number of population doublings (PDs)=log(A/B)/log2 [Math Figure 1] wherein A is the number of cells harvested at one passage, and B is the initial cell number at that passage.

[3] = system: Drosophila; conditions: long-term administration; reference 15; cited from earlier work
[4] = system: human vascular endothelial cells; conditions: reference 16; cited from earlier work
[5] = system: p53; test: Western blot, p53 expression; format: cell-based, human; conditions: cells cultured with inhibitor, harvested at each passage
Description: In order to examine the effects of COX-2 inhibitors on cellular senescence, cells were cultured and treated in the same manner as in Example 2, and then subjected to Western blot. The cultured cells were washed and collected in PBS, and then were disrupted in RIPA buffer (150 mM NaCl, 100 mM Tris-HCl, 1% Tween-20, 1% sodium deoxycholate and 0.1% SDS), containing 0.5 mM EDTA, 1 mM PMSF, 10 μg/ml leupeptin, 10 μg/ml aprotinin and 10 μg/ml pepstatin. The disrupted cells were centrifuged, and the supernatant was collected. Proteins in the cell extract were isolated by SDS-PAGE and transferred to nitrocellulose membranes. Then, the proteins were allowed to react with each of p53, p21, COX-1, COX-2 and caveolin-1 antibodies, and the protein-antibody complexes on the nitrocellulose membranes were allowed to react with peroxidase-conjugated anti-mouse or anti-rabbit secondary antibody. Then, the corresponding bands were visualized by chemiluminescence (Amersham Bioscience, Boston, Mass.) using an ECL kit. Herein, the antibodies for p53, p21 and COX-1 were purchased from Oncogene Science (Cambridge, Mass.), Cell Signaling Technology, Inc. (Danvers, Mass.), and Santa Cruz Biotechnology (Santa Cruz, Calif.), respectively, and the antibodies for COX-2 and cavelolin-1 were purchased from BD Bioscience (San Jose, Calif.). […]

[6] = system: catalase; test: Western blot, catalase expression; format: cell-based, human; conditions: P28 cells cultured in the presence of inhibitor
[7] = system: Gpx-1 (glutathione peroxidase-1); test: Western blot, Gpx-1 expression; format: cell-based, human; conditions: P28 cells cultured in the presence of inhibitor
[8] = system: caveolin-1; test: Western blot, caveolin-1 expression; format: cell-based, human; conditions: for expression of caveolin-1: cells cultured with inhibitor, harvested at each passage; for expression of caveolin-1, short treatment: short period of time (NS-398: 4 hours)
Description: (§1) In order to examine the effects of COX-2 inhibitors on cellular senescence, cells were cultured and treated in the same manner as in Example 2, and then subjected to Western blot. The cultured cells were washed and collected in PBS, and then were disrupted in RIPA buffer (150 mM NaCl, 100 mM Tris-HCl, 1% Tween-20, 1% sodium deoxycholate and 0.1% SDS), containing 0.5 mM EDTA, 1 mM PMSF, 10 μg/ml leupeptin, 10 μg/ml aprotinin and 10 μg/ml pepstatin. The disrupted cells were centrifuged, and the supernatant was collected. Proteins in the cell extract were isolated by SDS-PAGE and transferred to nitrocellulose membranes. Then, the proteins were allowed to react with each of p53, p21, COX-1, COX-2 and caveolin-1 antibodies, and the protein-antibody complexes on the nitrocellulose membranes were allowed to react with peroxidase-conjugated anti-mouse or anti-rabbit secondary antibody. Then, the corresponding bands were visualized by chemiluminescence (Amersham Bioscience, Boston, Mass.) using an ECL kit. Herein, the antibodies for p53, p21 and COX-1 were purchased from Oncogene Science (Cambridge, Mass.), Cell Signaling Technology, Inc. (Danvers, Mass.), and Santa Cruz Biotechnology (Santa Cruz, Calif.), respectively, and the antibodies for COX-2 and cavelolin-1 were purchased from BD Bioscience (San Jose, Calif.). Also, β-actin was used as an intracellular control protein to correct the amount of the intracellular total protein.

[9] = system: caveolin-1 mRNA; test: RT-PCR, caveolin-1 mRNA; format: cell-based, human; conditions: corrected with GAPDH
Description: In order to examine the effects of COX-2 inhibitors on cellular senescence, cells were cultured and treated in the same manner as in Example 2, and then subjected to RT-PCR. […] The cavelolin-1 gene was amplified using a sense primer ([NT]) and an anti-sense primer ([NT]), and the GAPDH gene was amplified using a sense primer ([NT]) and an anti-sense primer ([NT]). The polymerase chain reaction was performed in the following conditions: 25 cycles of 30 sec at 95 t, 30 sec at 60° C. and 30 sec at 72° C. The resulting DNA products were electrophoresed on 2% agarose gel containing EtBr.

[10] = system: human promonocytes; conditions: reference 25; cited from earlier work
[11] = system: SOD-2 (superoxide dismutase-2); test: Western blot, SOD-2 expression; format: cell-based, human; conditions: P28 cells cultured in the presence of inhibitor
[12] = system: reactive oxygen species; test: Measurement of reactive oxygen species with DCFH-DA; format: cell-based, human; conditions: treated for a long period of time (65 days), P29
Description: In order to examine the effects of COX-2 inhibitors on cellular senescence, cells were cultured and treated in the same manner as in Example 2, and reactive oxygen in the cells was then measured. The cultured cells were treated with 5 μM DCFH-DA (Invitrogen, Carlsbad, Calif.), and the cells were incubated at 37 C for 45 minutes and then washed with PBS. The washed cells were collected in 1 ml PBS, and then disrupted with ultrasonic waves. The fluorescence of the cells was measured with a fluorescence spectrophotometer (Molecular Devices, Sunnyvale, Calif.), and the measured fluorescence value was corrected with the cell number.

[13] = system: total cholesterol; test: Analysis of intracellular total cholesterol; format: cell-based, human; conditions: corrected with protein concentration
Description: In order to examine the effects of COX-2 inhibitors on cellular senescence, cells were cultured and treated in the same manner as in Example 2, and then analyzed for cholesterol. 2×10^6 cells were treated with a mixture of chloroform and methanol (2:1) to extract a fatty component. The amount of total cholesterol in the fatty component was measured at 570 nm using a staining method according to the manual of BioVision (Mountain View, Calif.), and the measured values were corrected with the protein concentration.

[14] = system: p21; test: Western blot, p21 expression; format: cell-based, human; conditions: cells cultured with inhibitor, harvested at each passage
Description: as §1, with “Also, β-actin was used as an intracellular control protein to correct the amount of the intracellular total protein.” left out

[15] = system: collagen; conditions: fibroblasts and hepatic stellate cells; references 24 and 36; cited from earlier work

Q: With CC(C)Cc1ccc(C(C)C(=O)O)cc1 (stereo not shown) [ibuprofen] as the molecule, how does the “increase of the ratio of SA-β-gal positive cells compared to DMSO” value (“increase of the ratio … to DMSO” for short) [1] read?
A: The value was 1.7 times.

Q: And the “reduction of the maximum number of population doublings compared to DMSO” value (“reduction of the maximum number … to DMSO” below) ([2]; PD 24 before treatment)?
A: Its value is 5 times.

Q: What about the “effect on cellular senescence” value [2] of the same molecule?
A: Its value is “promoted cellular senescence”.

Q: For O=C(O)c1ccccc1O [salicylic acid], which “average lifespan of Drosophila” value [3] is on record?
A: Its value is “led to a decrease in the average lifespan of the Drosophila or had no effect on the average lifespan”.

Q: With CC(=O)Oc1ccccc1C(=O)O [aspirin, acetylsalicylic acid] as the molecule, how does the “average lifespan of Drosophila” value [3] read?
A: The value was “led to a decrease in the average lifespan of the Drosophila or had no effect on the average lifespan”.

Q: And the “increase of the ratio … to DMSO” value [1]?
A: The value was 1.9 times.

Q: And the “reduction of the maximum number … to DMSO” value ([2]; PD 24 before treatment)?
A: Its value is 7 times.

Q: What about the “effect on cellular senescence” value [2] of the same molecule?
A: The value was “promoted cellular senescence”.

Q: And the “effect on senescence in human vascular endothelial cells” value [4]?
A: Its value is “inhibited senescence”.

Q: Which results are given for CC(C(=O)O)c1ccc(-c2ccccc2)c(F)c1 (stereo not shown) [flurbiprofen]?
A: increase of the ratio of SA-β-gal positive cells compared to DMSO [1]: 1.6 times; reduction of the maximum number of population doublings compared to DMSO ([2]; PD 24 before treatment): 4 times; effect on cellular senescence [2]: promoted cellular senescence

Q: What does the source list for COc1ccc2c(c1)c(CC(=O)O)c(C)n2C(=O)c1ccc(Cl)cc1 [indomethacin]?
A: average lifespan of Drosophila [3]: led to a decrease in the average lifespan of the Drosophila or had no effect on the average lifespan; effect on senescence in human vascular endothelial cells [4]: promoted senescence

Q: For CS(=O)(=O)Nc1ccc([N+](=O)[O-])cc1Oc1ccccc1 [nimesulide], which “expression of p53” value [5] is on record?
A: Its value is “increased”.

Q: And the expression of catalase [6]?
A: Its expression of catalase is “reduced”.

Q: And the “expression of Gpx-1” value [7]?
A: The value was “reduced”.

Q: And the “increase of the ratio … to DMSO” value [1]?
A: The value was 1.3 times.

Q: What about the “reduction of the maximum number … to DMSO” value ([2]; PD 24 before treatment) of the same molecule?
A: Its value is “two”.

Q: What about the “effect on cellular senescence” value [2] of the same molecule?
A: The value was “promoted cellular senescence”.

Q: And the “expression of caveolin-1” value [8]?
A: The value was “increased”.

Q: And the “expression of caveolin-1, short treatment” value [8]?
A: The value was “did not significantly change”.

Q: What about the “mRNA level of caveolin-1” value [9] of the same molecule?
A: The value was “increased”.

Q: And the “reactive oxygen species in human promonocytes” value [10]?
A: Its value is “remove reactive oxygen species”.

Q: What about the “expression of SOD-2” value [11] of the same molecule?
A: Its value is “reduced”.

Q: What about the “increase of the level of reactive oxygen species” value [12] of the same molecule?
A: The value was 1.2 times.

Q: And the “intracellular total cholesterol concentration” value [13]?
A: Its value is “increased”.

Q: What about the “expression of p21” value [14] of the same molecule?
A: Its value is “increased”.

Q: Which “expression of p53” value [5] does the source give for CS(=O)(=O)Nc1ccc([N+](=O)[O-])cc1OC1CCCCC1 [NS-398, N-[2-(cyclohexyloxyl)-4-nitrophenyl]-methanesulfonamide] here?
A: The value was “without inhibiting”.

Q: And the expression of catalase [6]?
A: Its expression of catalase is “reduced”.

Q: What about the “expression of Gpx-1” value [7] of the same molecule?
A: The value was “increased”.

Q: What about the “increase of the maximum number of population doublings compared to DMSO” value ([2]; PD 24 before treatment, NS-398 20 μM) of the same molecule?
A: The value was 7 times.

Q: What about the “effect on cellular senescence” value [2] of the same molecule?
A: The value was “inhibited cellular senescence; also recorded: strongly inhibits cellular senescence”.

Q: And the “expression of caveolin-1” value [8]?
A: The value was “inhibited the expression of caveolin-1 at all passages”.

Q: And the “expression of caveolin-1, short treatment” value [8]?
A: Its value is “clearly inhibited”.

Q: And the “mRNA level of caveolin-1” value [9]?
A: The value was “reduced”.

Q: What about the “reactive oxygen species in human promonocytes” value [10] of the same molecule?
A: The value was “remove reactive oxygen species”.

Q: What about the “expression of SOD-2” value [11] of the same molecule?
A: Its value is “reduced”.

Q: And the expression of collagen [15]?
A: The expression of collagen was “increased”.

Q: And the “reduction of the level of reactive oxygen species” value [12]?
A: Its value is “three”.

Q: And the “intracellular total cholesterol concentration” value [13]?
A: Its value is “reduced”.

Q: And the “expression of p21” value [14]?
A: Its value is “inhibited”.

Q: With Cc1ccc(-c2cc(C(F)(F)F)nn2-c2ccc(S(N)(=O)=O)cc2)cc1 [celecoxib] as the molecule, how does the “increase of the level of reactive oxygen species” value [12] read?
A: Its value is 1.2 times.
